Values joined by “and” are separate entries in the source; they are usually repeats but may differ in a detail not shown here. Identical values can stand only once. Active and inactive are the calls of the source. No rule for the calls is given here.

For the assay, the system named is in vivo angiogenesis, blood vessel count. The experiment in a line: reduction of blood vessel formation in vivo – HTS, in vivo study (AID 732).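 Also: zebrafish embryos dosed at one day post fertilization; 0% = reference inhibitor and 100% = plate mean.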 Particulars: stronger effect = lower value;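 tested at 30 µM in the well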.
In the case of `N=C1Sc2ccccc2C2=NCCCN12`, the vessel count % control is 104% (inactive).

As to `NC(C(=O)N[C@@H]1C(=O)N2C(C(=O)O)=C(Cl)CS[C@H]12)c1ccccc1` (stereo partly drawn), the vessel count % control was 108% (inactive).

As for `CN(C)CCC=C1c2ccccc2CCc2ccccc21`, the vessel count % control is 91.2% (inactive).

Turning to `C[C@@H]1O[C@@H](O[C@H]2C[C@@H](O)[C@]3(CO)[C@@H]4C(CC[C@]3(O)C2)[C@@]2(O)CC[C@H](C3COC(=O)C3)[C@@]2(C)C[C@H]4O)[C@H](O)[C@H](O)[C@H]1O` (stereo partly drawn), the vessel count % control was 104% (inactive).

In the case of `NCCCP(=O)(O)O`, the vessel count % control was 91.6% (inactive).

Take `CCN1CCC[C@H]1CNC(=O)c1c(O)c(Cl)cc(Cl)c1OC`: the vessel count % control is 103% (inactive).

With `Cc1[nH]c2ccc(O)cc2c1CCN`, the vessel count % control is 87% (inactive).

As for `COc1cc(C(O)C(=O)O)ccc1O` (stereo not drawn), the vessel count % control is 92.5% (inactive).

For the compound `COc1ccc(CCNC[C@@H](O)c2ccc(O)cc2)cc1OC`, the vessel count % control is 105% (inactive).

As for `O=C(O)c1ccccc1Nc1cccc(OCc2ccc3ccccc3n2)c1`, the vessel count % control is 85.3% (inactive).

Consider `C=CCN1CCc2c(cc(O)c(O)c2Br)[C@@H](c2ccccc2)C1`, for which the vessel count % control is 85% (inactive).

In the case of `NC(N)=NCCCCN=C(N)N`, the vessel count % control is 88% (inactive).

Take `COc1ccccc1N1CCN(CCN2C(=O)CC3(CCCC3)CC2=O)CC1`: the vessel count % control is 89.5% (inactive).

Take `CC[N+](C)(C)c1cccc(O)c1`: the vessel count % control is 114% (inactive).

On to `CC(=O)O[C@H]1C(=O)[C@@]2(C)C([C@H](OC(=O)c3ccccc3)[C@]3(O)C[C@H](OC(=O)[C@H](O)[C@@H](NC(=O)c4ccccc4)c4ccccc4)C(C)=C1C3(C)C)[C@]1(OC(C)=O)CO[C@@H]1C[C@@H]2O` (stereo partly drawn), for which the vessel count % control is 82.3% (inactive).

As for `S=C(S)OC1CC2CC1C1CCCC21` (stereo not drawn), the vessel count % control was 86.8% (inactive).

With `COc1ccc2[nH]c3c(c2c1)CCNC3`, the vessel count % control is 137% (inactive).

With `O=[N+]([O-])c1cccc2c(Br)[nH]nc12`, the vessel count % control was 99.9% (inactive).

As for `Cn1c(=O)c2[nH]c(C3CCCC3)nc2n(C)c1=O`, the vessel count % control was 104% (inactive).

For the compound `COc1cc2nc(N3CCN(C(=O)C4CCCO4)CC3)nc(N)c2cc1OC` (stereo not drawn), the vessel count % control was 83.3% (inactive).

On to `NCCCCNCCCN`, for which the vessel count % control was 122% (inactive).

For `c1ccc2c(c1)OCC(C1=NCCN1)O2` (stereo not drawn), the vessel count % control is 146% (inactive).

As to `CC(C)NC[C@H](O)COc1ccc(CC(N)=O)cc1`, the vessel count % control is 86.6% (inactive).

Take `OCCN1CCN(CCCN2c3ccccc3Sc3ccc(Cl)cc32)CC1`: the vessel count % control was 99.2% (inactive).

For the compound `Nc1ccn([C@@H]2O[C@H](CO)[C@@H](O)[C@@H]2O)c(=O)n1`, the vessel count % control is 104% (inactive).

With `NC(CCP(=O)(O)O)C(=O)O` (stereo not drawn), the vessel count % control is 88.9% (inactive).

Regarding `NC(N)=NCCSSCCN=C(N)N`, the vessel count % control is 93.7% (inactive).

With `O=NN(CCCl)C(=O)NCCCl`, the vessel count % control was 96.9% (inactive).

With `COc1ccc(Cc2nccc3cc(OC)c(OC)cc23)cc1OC`, the vessel count % control is 110% (inactive).

In the case of `NCCCNCCCCNCCCN`, the vessel count % control is 115% (inactive).

As for `N[C@@H](Cc1c[nH]c2ccccc12)C(=O)O`, the vessel count % control was 88.5% (inactive).

For the compound `COc1cc(=O)n(C)c2c(OCC(O)C(C)(C)O)cccc12` (stereo not drawn), the vessel count % control is 75.4% (inactive).

Regarding `O=C(O)CCc1nc(-c2ccccc2)c(-c2ccccc2)o1`, the vessel count % control is 73.7% (inactive).

For `CC(C[N+](C)(C)C)OC(N)=O` (stereo not drawn), the vessel count % control was 91.7% (inactive).

Take `CCCCC/C=C\CC(O)/C=C/c1cccc(CC(O)CCCCO)n1` (stereo not drawn): the vessel count % control is 100% (inactive).

In the case of `Oc1[nH]c2ccccc2c1C1=Nc2ccc(Br)cc2/C1=N\OCCN1CCNCC1`, the vessel count % control was 86.4% (inactive) and 40.6% (inactive).

With `CC(N)=NCc1cccc(CN)c1`, the vessel count % control was 104% (inactive).

As for `CCC(CO)Nc1nc(NCc2ccccc2)c2ncn(C(C)C)c2n1` (stereo not drawn), the vessel count % control was 82.5% (inactive).

Consider `C/C=C1\C(=O)CC2C3CCC4=CC(=O)CC[C@]4(C)C3CC[C@]12C` (stereo partly drawn), for which the vessel count % control was 102% (inactive).

In the case of `COc1ccc2c(c1O)-c1cccc3c1[C@@H](C2)N(C)CC3`, the vessel count % control was 90.5% (inactive).

Consider `O=C(O)C1CCCN(CCC=C(c2ccccc2)c2ccccc2)C1` (stereo not drawn), for which the vessel count % control was 88.5% (inactive).

In the case of `C#CCN(C)CCCOc1ccc(Cl)cc1Cl`, the vessel count % control is 100% (inactive).

`Brc1c(NC2=NCCN2)ccc2nccnc12`: the vessel count % control is 104% (inactive).

As to `c1ccc(CCCN2CCN(CCOC(c3ccccc3)c3ccccc3)CC2)cc1`, the vessel count % control is 101% (inactive).

As to `CCN1/C(=C/C(C)=O)Sc2ccc(OC)cc21`, the vessel count % control is 98% (inactive).

In the case of `Nc1cc(Cl)c(NC2=NCCN2)c(Cl)c1`, the vessel count % control is 114% (inactive).

`C[C@@H](CN1CCC(Cc2ccccc2)CC1)[C@@H](O)c1ccc(O)cc1`: the vessel count % control was 112% (inactive).

For `Cc1cc(C(C)(C)C)c(O)c(C)c1CC1=NCCN1`, the vessel count % control is 106% (inactive).

As to `CN1CCC(=C2c3ccccc3C=Cc3ccccc32)CC1`, the vessel count % control is 0% (inactive).

`NC(N)=NC(=O)c1nc(Cl)c(N2CCCCCC2)nc1N`: the vessel count % control was 119% (inactive).

As to `CC(C(O)c1ccc(O)cc1)N1CCC(Cc2ccccc2)CC1` (stereo not drawn), the vessel count % control was 0% (inactive).

`O=c1c(O)c(-c2cc(O)c(O)c(O)c2)oc2cc(O)cc(O)c12`: the vessel count % control was 87.9% (inactive).

`CC(C)Cc1ccc([C@H](C)C(=O)O)cc1`: the vessel count % control was 66.8% (inactive).

As for `Nc1ccc(CCNc2ncnc3c2ncn3C2OC(CO)C(O)C2O)cc1` (stereo not drawn), the vessel count % control is 110% (inactive).

On to `CCCN(CCC)[C@@H]1CCc2cccc(O)c2C1`, for which the vessel count % control was 94.1% (inactive).

On to `NC1C=CC=C(C(=O)O)C1` (stereo not drawn), for which the vessel count % control was 114% (inactive).

As to `CN(N=O)c1ccc(O)c(O)c1`, the vessel count % control was 96.8% (inactive).

In the case of `COc1cc2c(c(OC)c1OC)-c1ccc(OC)c(=O)cc1[C@@H](NC(C)=O)CC2`, the vessel count % control is 116% (inactive).

Turning to `CCCN1CCc2cc(O)cc3c2[C@H]1Cc1ccc(O)c(O)c1-3`, the vessel count % control was 114% (inactive).

On to `Nc1ncnc2c1ncn2[C@@H]1O[C@H](COP(=O)(O)OP(=O)(O)OP(=O)(O)OP(=O)(O)OC[C@@H]2O[C@H](n3cnc4c(N)ncnc43)C(O)[C@@H]2O)[C@H](O)C1O` (stereo partly drawn), for which the vessel count % control was 89.7% (inactive).

For `NNc1nncc2ccccc12`, the vessel count % control was 92.2% (inactive).

Take `CCN(CC)C(=O)N[C@@H]1C=C2c3cccc4[nH]cc(c34)C[C@H]2N(C)C1`: the vessel count % control was 75.3% (inactive).

Consider `N[C@@H](CCl)C(=O)O`, for which the vessel count % control was 101% (inactive).

`OCCN(CCO)c1nc(N2CCCCC2)c2nc(N(CCO)CCO)nc(N3CCCCC3)c2n1`: the vessel count % control is 109% (inactive).

As for `S=C(NC1CCCCC1)N1CCC(c2cnc[nH]2)CC1`, the vessel count % control was 129% (inactive).

Take `[N-]=[N+]=Nc1ccc(C(=O)CSC[C@H](NC(=O)CC[C@H](N)C(=O)O)C(=O)NCC(=O)O)cc1`: the vessel count % control is 91.6% (inactive).

Turning to `OC1CCCCC1N1CCC(c2ccccc2)CC1` (stereo not drawn), the vessel count % control is 99% (inactive).

For the compound `CC(C(=O)O)c1ccc(CC2CCCC2=O)cc1` (stereo not drawn), the vessel count % control was 113% (inactive).

Consider `O=Nc1c(-c2c(O)[nH]c3ccc(F)cc23)[nH]c2ccccc12`, for which the vessel count % control is 48.1% (inactive).

As to `CC1(C(=O)O)C2CCC(O2)C1(C)C(=O)O` (stereo not drawn), the vessel count % control was 0% (inactive).

Consider `CNC1(C)C2CCC(C2)C1(C)C` (stereo not drawn), for which the vessel count % control is 107% (inactive).

With `CSc1ccc2c(c1)N(CCC1CCCCN1C)c1ccccc1S2` (stereo not drawn), the vessel count % control was 102% (inactive).

As for `CN=C(NC#N)NCCSCc1nc[nH]c1C`, the vessel count % control is 112% (inactive).

Consider `NCCCCNS(=O)(=O)c1cccc2c(Cl)cccc12`, for which the vessel count % control was 107% (inactive).

For `O=Nc1c(-c2c(O)[nH]c3ccccc23)[nH]c2ccc(Br)cc12`, the vessel count % control is 67.5% (inactive).

For the compound `CC(CCc1ccc(O)cc1)NCCc1ccc(O)c(O)c1` (stereo not drawn), the vessel count % control is 92.8% (inactive).

Regarding `C=C(C)[C@H]1Cc2c(ccc3c2O[C@@H]2COc4cc(OC)c(OC)cc4[C@@H]2C3=O)O1`, the vessel count % control is 0% (inactive).

Consider `CC(N)=NCCCC[C@@H](N)C(=O)O`, for which the vessel count % control is 86.6% (inactive).

In the case of `COc1ccccc1N1CCN(CCN(C(=O)c2ccc(F)cc2)c2ccccn2)CC1`, the vessel count % control was 103% (inactive).

As to `CCNC(=O)[C@H]1O[C@@H](n2cnc3c(N)ncnc32)C(O)[C@H]1O` (stereo partly drawn), the vessel count % control was 110% (inactive).

Take `COc1ccc(-n2nc(C(F)(F)F)cc2-c2ccc(Cl)cc2)cc1`: the vessel count % control is 126% (inactive).

As to `NC(=NCc1ccccc1)NC(=O)c1nc(Cl)c(N)nc1N`, the vessel count % control is 107% (inactive).

As for `Cc1nc2c([nH]1)c(=O)n(C)c(=O)n2Cc1ccco1`, the vessel count % control is 93.1% (inactive).

With `CCCN(CCC)C1Cc2cc(OC)c(OC)cc2C1`, the vessel count % control was 72.2% (inactive).

Consider `O=C(Nc1ccc([N+](=O)[O-])cc1Cl)c1cc(Cl)ccc1O`, for which the vessel count % control was 0% (inactive).

For `CNCC[C@H](Oc1ccc(C(F)(F)F)cc1)c1ccccc1`, the vessel count % control was 98.4% (inactive).

For `NCC1OC(O[C@@H]2[C@H](O)C(OC3C(O)C(N)CC(N)C3OC3OC(CO)C(O)C(O)C3N)O[C@@H]2CO)C(N)C(O)C1O` (stereo partly drawn), the vessel count % control is 116% (inactive).

In the case of `CC(C)C(=O)c1c(C(C)C)nn2ccccc12`, the vessel count % control was 94.7% (inactive).
